No end group written: not given here.
Assays:
Assay in all cases: biochemical
Type in all cases: binding
HLA-DR DRB1*0701 (DR7) = HLA-DR DRB1*0701 (DR7) (Homo sapiens, UniProt P01903+P01911, A100R/A102G/A103Q/D57E/D86V/E43K/F76Y/K127E/L162R/M171V/P40G/Q125H/Q99D/R33Q/R42Y/R54Q/S133A/S66F/T210M/V115G/Y107V/Y59L/Y89S); conditions: read-out: DRB1 *0701
HLA-DR DRB1*0401 (DR4) = HLA-DR DRB1*0401 (DR4) (Homo sapiens, UniProt P01903+P01911, A100K/A169T/F76Y/I96L/K127E/L162R/M171V/N62H/P40V/Q125Y/R42H/S133A/S149N/S66Y/V115G/V209L/W38E); conditions: read-out: DRB1 *0401
HLA-DR DRB1*0405 (DR4) = HLA-DR DRB1*0405 (DR4) (Homo sapiens, UniProt P01903+P01911, A100R/A169T/D86S/F76Y/I96L/K127E/L162R/M171V/N62H/P40V/Q125Y/R42H/S133A/S149N/S66Y/V115G/V209L/W38E); conditions: read-out: DRB1 *0405
HLA-A*3301 = HLA-A*3301 (Homo sapiens, UniProt P04439, A270S/D185E/E176V/E277Q/E87N/F33T/G231S/H175R/I121M/I218V/I322F/K168Q/K210R/L300P/L318F/M331R/P217A/Q86R/Q94H/R138Q/T323A/T345S/T97I/V358M/Y195H)
HLA-A*6801 = HLA-A*6801 (Homo sapiens, UniProt P04439, A269V/D185E/E176V/E277Q/E87N/F33Y/G231S/I121M/I166T/I218V/L180W/L300P/L318F/N151K/P208A/P217A/Q86R/R169H/T345S)
HLA-A*0301 = HLA-A*0301 (Homo sapiens, UniProt P04439)
HLA-A*1101 = HLA-A*1101 (Homo sapiens, UniProt P04439, A114D/D185E/E176A/F33Y/L180Q/S129P/T187R)
HLA-A*3101 = HLA-A*3101 (Homo sapiens, UniProt P04439, A270S/D185E/E176V/E277Q/F33T/G231S/G80R/H175R/I121M/I218V/I322F/K168Q/L300P/L318F/M331R/P217A/Q94H/R138Q/T323A/T345S/T97I/V358M)

HLA-A*1101, sequence (P04439 25-365 limits assumed, stated change not applied): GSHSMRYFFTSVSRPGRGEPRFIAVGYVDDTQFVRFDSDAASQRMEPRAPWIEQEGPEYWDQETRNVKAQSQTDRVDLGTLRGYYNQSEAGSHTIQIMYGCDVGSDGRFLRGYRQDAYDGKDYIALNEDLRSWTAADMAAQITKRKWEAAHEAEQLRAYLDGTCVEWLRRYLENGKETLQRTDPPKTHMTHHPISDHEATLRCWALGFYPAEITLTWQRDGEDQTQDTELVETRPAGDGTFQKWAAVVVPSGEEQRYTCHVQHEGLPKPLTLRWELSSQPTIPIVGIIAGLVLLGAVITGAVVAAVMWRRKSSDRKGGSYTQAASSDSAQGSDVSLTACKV

| Sequence | IC50 (HLA-DR DRB1*0701 (DR7)) | IC50 (HLA-DR DRB1*0401 (DR4)) | IC50 (HLA-DR DRB1*0405 (DR4)) | IC50 (HLA-A*3301) | IC50 (HLA-A*6801) | IC50 (HLA-A*0301) | IC50 (HLA-A*1101) | IC50 (HLA-A*3101) |
| --- | --- | --- | --- | --- | --- | --- | --- | --- |
| EFAFKDLFVVYRDS | 3.69 µM | 2.22 µM | 0.033 µM | – | – | – | – | – |
| KKPLNEILIRCIICQ | 7.97 µM | 0.315 µM | 0.347 µM | – | – | – | – | – |
| KVSEFRWYRR | – | – | – | 0.159 µM | 0.03 µM | 0.266 µM | 0.016 µM | 0.0028 µM |
| LLFYSKVRKYR | – | – | – | 0.011 µM | 0.015 µM | 0.028 µM | 0.094 µM | 0.007 µM |
| LTFYSKVRK | – | – | – | 3.38 µM | 0.013 µM | 0.0038 µM | 0.008 µM | 0.087 µM |
| LTISYGRK | – | – | – | 38.2 µM | 0.482 µM | 0.988 µM | 0.708 µM | 27.1 µM |
| LTISYGRKK | – | – | – | 59.7 µM | 0.063 µM | 0.584 µM | 0.069 µM | 13.9 µM |
| LVFSNVLCFR | – | – | – | 0.019 µM | 0.0077 µM | 0.12 µM | 0.019 µM | 0.033 µM |
| LVTDLRIVYR | – | – | – | 0.15 µM | 0.0068 µM | 3.87 µM | 0.648 µM | 0.02 µM |
| NIMGRWTGK | – | – | – | 0.086 µM | 0.173 µM | 0.052 µM | 0.054 µM | 3.27 µM |
| NSVYGETLER | – | – | – | 1.33 µM | 0.018 µM | 0.15 µM | 0.025 µM | 0.163 µM |
| NTLEQTVKR | – | – | – | 0.018 µM | 0.0086 µM | 20.4 µM | 1.15 µM | 2.27 µM |
| NVMGRWTGR | – | – | – | 0.018 µM | 0.02 µM | 3.88 µM | 0.794 µM | 0.04 µM |
| PVLTSLFNK | – | – | – | 18.3 µM | 29.9 µM | 1.95 µM | 0.025 µM | 5.11 µM |
| PVRPQVPLR | – | – | – | 3.44 µM | 7.01 µM | > 10.9 µM | 16.1 µM | 0.332 µM |
| QMAVGPGPGK | – | – | – | 86.7 µM | 0.022 µM | 0.033 µM | 0.016 µM | 5.96 µM |
| QMMNVNLQK | – | – | – | 6.65 µM | 0.243 µM | 0.02 µM | 0.007 µM | 0.504 µM |
| QQNQESKIMK | – | – | – | > 17.4 µM | 21.3 µM | 3.47 µM | 0.077 µM | 28.1 µM |
| RFHSIAGQYK | – | – | – | 0.629 µM | 0.083 µM | 0.017 µM | 0.043 µM | 0.0013 µM |
| RFLSKISEYY | – | – | – | 41.1 µM | 4 µM | 1.7 µM | 25.5 µM | 0.014 µM |
| RLFEESLGIR | – | – | – | 0.788 µM | 0.409 µM | 0.064 µM | 1.1 µM | 0.297 µM |
| RLLSKISEYR | – | – | – | 0.108 µM | 0.021 µM | 0.0052 µM | 0.662 µM | 0.0077 µM |
| RLYSKVSEFR | – | – | – | 0.69 µM | 0.073 µM | 0.0064 µM | 0.131 µM | 0.024 µM |
| RVHFASPLH | – | – | – | > 123 µM | 7.62 µM | 0.012 µM | 0.06 µM | 0.572 µM |
| RVHSIAGQYR | – | – | – | 0.812 µM | 0.028 µM | 0.031 µM | 0.034 µM | 0.0076 µM |
| RVRRRRWRAR | – | – | – | 3.76 µM | > 36.9 µM | 2.44 µM | > 16.8 µM | 0.265 µM |
| SFYGKTLEER | – | – | – | 0.066 µM | 0.042 µM | 0.642 µM | 0.205 µM | 0.017 µM |
| SFYGTTLEK | – | – | – | 3.38 µM | 0.498 µM | 0.034 µM | 0.015 µM | 0.517 µM |
